Test results reported in patent US7964647B2 (Mutual Pharmaceutical Company, Inc., priority 2007, dated 2011).

Legend:
[1] = system: patients with acute gout flare (acute gouty arthritic attack); experiment: Multicenter, randomized, double-blind, placebo-controlled dose comparison study in acute gout flare: efficacy (target joint pain); format: in vivo, human
Source text: A sufficient number of patients are screened to enroll and randomize 300 patients (100 patients per treatment group) who meet the criteria of the American College of Rheumatology (ACR) for acute arthritis of gout.
Efficacy assessment will be made based on patient and Investigator inputs. Patients will record pain severity and sleep interference on a study diary. The severity of pain for each joint affected by the acute gouty arthritic attack will be rated on an 11-point pain intensity numerical rating scale (PI-NRS) that ranges from 0 (“no pain”) to 10 (“worst possible pain”). […] Investigators will provide clinical assessments in the clinic at all Post-Flare Phase study visits, and at medically necessary intervening visits. For these assessments, each of the patient's joints affected by the acute gouty arthritic attack will be examined and signs and symptoms of inflammation will be rated (erythema [absent, present, or not assessable], swelling [0, “none” to 3, “severe”], and tenderness to touch [0, “none” to 3, “severe”]).
The target joint is identified during data analysis as that joint affected by the acute gout flare with the highest baseline pain score on the patient diary. Ties among maximum joint scores for an individual are resolved by random selection.
The secondary efficacy variables are assessments of magnitude of pain reduction, time to response, time to complete pain relief, and interference with sleep as recorded on patient diaries by the patient. Signs and symptoms of inflammation per Investigator's clinical assessments of the target joint are evaluated. Time to drop out (use of rescue medications) is also evaluated. Investigator global assessment of response to treatment is assessed.
Analyses will also be made on an Evaluable patient population with an Evaluable patient defined as one who, in addition to being included in the PP population, completed the randomized treatment course. The ITT population will be used for the evaluation of safety.
Statistical tests for efficacy analysis are two-tailed with an alpha significance level of 0.05.
The sensitivity to alternate definitions of response (based both on magnitude of reduction from baseline as well as time point) will be evaluated as secondary endpoints. As additional sensitivity analyses, these tests will also be repeated for the PP and Evaluable populations if the sample sizes differ from the overall ITT population by more than 10%.
Change in pain intensity, interference with sleep, time to 50% reduction in pain, and time to complete pain relief will be analyzed as continuous variables using analysis of covariance with study site, treatment group, and site by treatment interaction as independent variables for change in pain intensity and interference with sleep, with baseline score as a covariate. For the Investigator's clinical assessment of inflammation (erythema, swelling, and tenderness to touch) and Investigator's global assessment of response to treatment, the treatment groups will be compared using the Mantel-Haenszel chi-square test stratified on study site.

[2] = Late treatment start (after 4 hours), Low dose 1.8 mg
[3] = low-dose regimen 1.8 mg (2 x 0.6 mg, then 0.6 mg 1 hour later), fasting healthy adults, N = 13
[4] = low-dose regimen 1.8 mg, healthy adults, N = 13
[5] = low-dose regimen 1.8 mg, time after the initial dose, healthy adults, N = 13

COc1cc2c(c(OC)c1OC)-c1ccc(OC)c(=O)cc1[C@@H](NC(C)=O)CC2 [Colchicine, (−)-N-[(7S,12aS)-1,2,3,10-tetramethoxy-9-oxo-5,6,7,9-tetrahydrobenzo[a]heptalen-7-yl]-acetamide]
Change from baseline in target joint pain score at 24 hours post first dose, Median ([1]; Late treatment start (after 4 hours), High dose 4.8 mg): −2.0 | Change from baseline in target joint pain score at 24 hours post first dose, Mean [1, 2]: −2.4 | Change from baseline in target joint pain score at 24 hours post first dose, Median [1, 2]: −2.5 | Number of responders (>=50% reduction in target joint pain score, no rescue medication) at 24 hours post first dose ([1]; Low dose 1.8 mg over 1 h, N = 74, ITT): 28 (37.8) N (%) | Number (%) of patients using rescue medication up to and including the 24-hour post first dose assessment ([1]; Low dose 1.8 mg, N = 74): 23 (31.1) n (%) | Patients with >=0% improvement in target joint pain score at 24 hours post first dose ([1]; Low dose 1.8 mg, N = 74): 74 (100.0%) | Patients with >=10% improvement in target joint pain score at 24 hours post first dose ([1]; Low dose 1.8 mg, N = 74): 47 (63.5%) | Patients with >=20% improvement in target joint pain score at 24 hours post first dose ([1]; Low dose 1.8 mg, N = 74): 45 (60.8%) | Patients with >=30% improvement in target joint pain score at 24 hours post first dose ([1]; Low dose 1.8 mg, N = 74): 39 (52.7%) | Patients with >=40% improvement in target joint pain score at 24 hours post first dose ([1]; Low dose 1.8 mg, N = 74): 36 (48.6%) | Patients with >=50% improvement in target joint pain score at 24 hours post first dose ([1]; Low dose 1.8 mg, N = 74): 30 (40.5%) | Patients with >=60% improvement in target joint pain score at 24 hours post first dose ([1]; Low dose 1.8 mg, N = 74): 24 (32.4%) | Patients with >=70% improvement in target joint pain score at 24 hours post first dose ([1]; Low dose 1.8 mg, N = 74): 20 (27.0%) | Patients with >=80% improvement in target joint pain score at 24 hours post first dose ([1]; Low dose 1.8 mg, N = 74): 15 (20.3%) | Patients with >=90% improvement in target joint pain score at 24 hours post first dose ([1]; Low dose 1.8 mg, N = 74): 9 (12.2%) | Patients with >=100% improvement in target joint pain score at 24 hours post first dose ([1]; Low dose 1.8 mg, N = 74): 8 (10.8%) | Patients achieving at least 40% relief at 24 hrs post-first dose, regardless of pain rescue (FIG. 1) ([1]; low dose 1.8 mg): 49% | Proportion of patients rescued prior to 24 hours ([1]; low dose 1.8 mg): 28.4% | Proportion of patients with ≧50% pain reduction at 24 hrs without pain rescue ([1]; low dose 1.8 mg): 37.8% | Proportion of patients rescued prior to 24 hours ([1]; standard dose 4.8 mg): 34.6% | Proportion of patients with ≧50% pain reduction at 24 hrs without pain rescue ([1]; standard dose 4.8 mg): 32.7% | Cmax, MAX [3]: 11.37 ng/mL | Cmax, MIN [3]: 3.16 ng/mL | Maximum colchicine concentration (low-dose regimen 1.8 mg, healthy adults): 6.2 ng/mL | CL/F, MAX [4]: 52676.24 mL/h | CL/F, MEAN [4]: 36950.93 mL/h | CL/F, MEDIAN [4]: 35444.40 mL/h | CL/F, MIN [4]: 24295.73 mL/h | Kel, MAX [4]: 0.0502 h⁻¹ | Kel, MEAN [4]: 0.0326 h⁻¹ | Kel, MEDIAN [4]: 0.0322 h⁻¹ | Kel, MIN [4]: 0.0141 h⁻¹ | Total AUC0-t, MAX [4]: 58.93199 ng·h/mL | Total AUC0-t, MEAN [4]: 43.78755 ng·h/mL | Total AUC0-t, MEDIAN [4]: 43.94215 ng·h/mL | Total AUC0-t, MIN [4]: 28.82145 ng·h/mL | Total AUC∞, MAX [4]: 74.08708 ng·h/mL | Total AUC∞, MEAN [4]: 52.07006 ng·h/mL | Total AUC∞, MEDIAN [4]: 50.78377 ng·h/mL | Total AUC∞, MIN [4]: 34.171 ng·h/mL | Varea/F, MAX [4]: 1724.36 L | Varea/F, MEAN [4]: 1188.72 L | Varea/F, MEDIAN [4]: 1149.35 L | Varea/F, MIN [4]: 774.19 L | t1/2, MAX [4]: 49.20 h | t1/2, MEAN [4]: 23.63 h | t1/2, MIN [4]: 13.80 h | Tmax, MAX [5]: 2.50 h | Tmax, MIN [5]: 1.00 h | Subjects with a secondary peak within 6 hours after the first dose (low-dose regimen 1.8 mg, 10 of 13 subjects): 77%
